Key:
[1] = DRUGMATRIX: beta-Lactamase enzyme inhibition (substrate: Nitrocefin); parameters: species or system Bacillus cereus; details: Not Active = under 50% inhibition at 10 µM
[2] = biological target: cGMP-specific 3',5'-cyclic phosphodiesterase (Homo sapiens, UniProt O76074); test: DRUGMATRIX: Phosphodiesterase PDE5 enzyme inhibition (substrate: [3H]cGMP + cGMP); type: tissue-based, Platelet; details: platelet; Not Active = under 50% inhibition at 10 µM
Leukotriene C4 synthase = biological target: T1, Leukotriene C4 synthase (Cavia porcellus, UniProt A6XA80); test: biochemical; type: tissue-based, Lung;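 further: enzyme inhibition assay of leukotriene C4 synthase, using LTA4 as the substrate; in other assays of this panel Not Active means under 50% inhibition at 10 µM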
T1 sequence (A6XA80 whole entry): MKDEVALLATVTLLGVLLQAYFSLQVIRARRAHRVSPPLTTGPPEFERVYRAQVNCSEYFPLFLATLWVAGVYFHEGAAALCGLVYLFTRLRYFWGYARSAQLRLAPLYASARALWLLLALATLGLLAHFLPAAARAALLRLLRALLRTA

Vasopressin V1a receptor = Vasopressin V1a receptor (Homo sapiens, UniProt P37288); type: cell membranes, Membrane; details: hek293; further: in other assays of this panel Not Active means under 50% inhibition at 10 µM
[3] = biological target: T2, Alpha-2C adrenergic receptor (Homo sapiens, UniProt P18825); test: DRUGMATRIX: Adrenergic Alpha-2C radioligand binding (ligand: [3H] MK-912); type: cell membranes, Sf9, Membrane; details: sf9
T2 sequence (P18825 whole entry): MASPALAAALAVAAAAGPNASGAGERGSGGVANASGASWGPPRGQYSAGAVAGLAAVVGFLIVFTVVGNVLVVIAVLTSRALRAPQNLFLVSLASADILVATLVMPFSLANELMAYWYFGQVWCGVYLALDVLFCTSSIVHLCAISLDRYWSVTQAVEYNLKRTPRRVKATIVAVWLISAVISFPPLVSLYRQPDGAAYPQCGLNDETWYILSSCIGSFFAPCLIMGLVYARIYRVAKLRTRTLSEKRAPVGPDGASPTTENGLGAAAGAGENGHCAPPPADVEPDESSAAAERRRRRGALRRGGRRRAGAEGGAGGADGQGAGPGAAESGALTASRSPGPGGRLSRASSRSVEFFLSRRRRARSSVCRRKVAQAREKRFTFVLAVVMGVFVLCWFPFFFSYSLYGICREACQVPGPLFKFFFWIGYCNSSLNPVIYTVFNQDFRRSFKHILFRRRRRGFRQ

[4] = biological target: Voltage-gated inwardly rectifying potassium channel KCNH2 (Homo sapiens, UniProt Q12809); details: hek293; further: in other assays of this panel Not Active means under 50% inhibition at 10 µM
Acetylcholinesterase = Acetylcholinesterase (Homo sapiens, UniProt P22303); test: DRUGMATRIX: Acetylcholinesterase enzyme inhibition (substrate: acetylthiocholine); type: cell-based, HEK293; details: hek293; Not Active = under 50% inhibition at 10 µM
[5] = biological target: T3, 5-hydroxytryptamine receptor 1A (Rattus norvegicus, UniProt P19327); type: cell membranes, CHO-K1, Membrane; details: cho-k1; further: in other assays of this panel Not Active means under 50% inhibition at 10 µM
T3 sequence (P19327 whole entry): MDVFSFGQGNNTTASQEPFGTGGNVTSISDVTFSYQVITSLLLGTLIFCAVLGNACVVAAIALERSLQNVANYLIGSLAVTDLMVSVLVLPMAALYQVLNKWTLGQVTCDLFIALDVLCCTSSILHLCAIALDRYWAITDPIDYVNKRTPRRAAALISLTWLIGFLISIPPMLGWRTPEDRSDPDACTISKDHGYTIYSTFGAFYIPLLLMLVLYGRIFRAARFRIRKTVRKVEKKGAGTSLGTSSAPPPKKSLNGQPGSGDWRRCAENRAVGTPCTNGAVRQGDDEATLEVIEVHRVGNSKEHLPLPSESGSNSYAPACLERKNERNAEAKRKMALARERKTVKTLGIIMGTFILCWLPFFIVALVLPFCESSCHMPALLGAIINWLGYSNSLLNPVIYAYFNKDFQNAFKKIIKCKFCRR

[6] = DRUGMATRIX: Serotonin (5-Hydroxytryptamine) 5-HT3 radioligand binding (ligand: [3H] GR-65630); type: cell membranes, Membrane; details: hek293; Not Active = under 50% inhibition at 10 µM
[7] = biological target: T4, Alpha-1B adrenergic receptor (Rattus norvegicus, UniProt P15823); test: DRUGMATRIX: Alpha-1B adrenergic receptor radioligand binding (ligand: prazosin); type: cell membranes, Wistar, Liver, Membrane; details: Not Active = under 50% inhibition at 10 µM
T4 sequence (P15823 whole entry): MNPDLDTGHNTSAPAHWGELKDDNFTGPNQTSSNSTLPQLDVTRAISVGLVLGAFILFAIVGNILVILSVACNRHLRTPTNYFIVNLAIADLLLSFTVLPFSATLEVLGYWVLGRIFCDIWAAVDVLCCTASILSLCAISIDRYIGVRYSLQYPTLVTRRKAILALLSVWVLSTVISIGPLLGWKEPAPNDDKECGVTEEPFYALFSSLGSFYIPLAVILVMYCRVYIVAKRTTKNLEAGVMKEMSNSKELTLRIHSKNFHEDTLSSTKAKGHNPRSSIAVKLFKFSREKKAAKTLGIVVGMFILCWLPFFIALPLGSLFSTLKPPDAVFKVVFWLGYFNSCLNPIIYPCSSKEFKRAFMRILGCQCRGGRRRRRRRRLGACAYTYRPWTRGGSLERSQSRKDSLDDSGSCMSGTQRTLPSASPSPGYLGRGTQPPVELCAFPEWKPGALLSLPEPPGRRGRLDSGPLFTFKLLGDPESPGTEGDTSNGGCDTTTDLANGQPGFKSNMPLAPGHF

[8] = biological target: C-C chemokine receptor type 2 (Homo sapiens, UniProt P41597); type: cell membranes, CHO-K1, Membrane; details: cho-k1; further: in other assays of this panel Not Active means under 50% inhibition at 10 µM
[9] = DRUGMATRIX: Calcium Channel Type L, Dihydropyridine radioligand binding (ligand: [3H] Nitrendipine); type: cell membranes, Rattus norvegicus, Wistar, Cerebral cortex, Membrane; details: Not Active = under 50% inhibition at 10 µM
[10] = DRUGMATRIX: GABAA, Chloride Channel, TBOB radioligand binding (ligand: [3H] TBOB); type: cell membranes, Rattus norvegicus, Wistar, Cerebral cortex, Membrane; details: Not Active = under 50% inhibition at 10 µM
[11] = DRUGMATRIX: Calcium Channel Type L, Benzothiazepine radioligand binding (ligand: [3H] Diltiazem); type: cell membranes, Rattus norvegicus, Wistar, Brain, Membrane; details: Not Active = under 50% inhibition at 10 µM
[12] = DRUGMATRIX: Atrial Natriuretic Factor (ANF) radioligand binding (ligand: [125I] ANF (rat)); type: cell membranes, Cavia porcellus, Dunkin-Hartley, Adrenal gland, Membrane; details: Not Active = under 50% inhibition at 10 µM
Cytochrome P450 3A4 = Cytochrome P450 3A4 (Homo sapiens, UniProt P08684); details: bti-tn-5b1-4; further: in other assays of this panel Not Active means under 50% inhibition at 10 µM
Sequence of Cytochrome P450 3A4 (P08684 whole entry): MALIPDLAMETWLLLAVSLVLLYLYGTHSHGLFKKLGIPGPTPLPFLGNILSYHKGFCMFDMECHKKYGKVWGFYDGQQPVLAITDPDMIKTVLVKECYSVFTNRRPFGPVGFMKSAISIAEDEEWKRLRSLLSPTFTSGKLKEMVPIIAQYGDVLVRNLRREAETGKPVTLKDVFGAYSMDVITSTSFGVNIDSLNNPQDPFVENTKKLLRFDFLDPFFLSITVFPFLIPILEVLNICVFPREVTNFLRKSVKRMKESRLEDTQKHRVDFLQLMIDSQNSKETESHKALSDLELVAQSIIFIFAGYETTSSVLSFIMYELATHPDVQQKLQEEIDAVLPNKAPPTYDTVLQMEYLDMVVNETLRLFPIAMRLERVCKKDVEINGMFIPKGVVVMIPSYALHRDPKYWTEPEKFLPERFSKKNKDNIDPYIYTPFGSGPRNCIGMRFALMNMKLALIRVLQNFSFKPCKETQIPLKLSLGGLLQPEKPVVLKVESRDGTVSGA

Sequence of Vasopressin V1a receptor (P37288 whole entry): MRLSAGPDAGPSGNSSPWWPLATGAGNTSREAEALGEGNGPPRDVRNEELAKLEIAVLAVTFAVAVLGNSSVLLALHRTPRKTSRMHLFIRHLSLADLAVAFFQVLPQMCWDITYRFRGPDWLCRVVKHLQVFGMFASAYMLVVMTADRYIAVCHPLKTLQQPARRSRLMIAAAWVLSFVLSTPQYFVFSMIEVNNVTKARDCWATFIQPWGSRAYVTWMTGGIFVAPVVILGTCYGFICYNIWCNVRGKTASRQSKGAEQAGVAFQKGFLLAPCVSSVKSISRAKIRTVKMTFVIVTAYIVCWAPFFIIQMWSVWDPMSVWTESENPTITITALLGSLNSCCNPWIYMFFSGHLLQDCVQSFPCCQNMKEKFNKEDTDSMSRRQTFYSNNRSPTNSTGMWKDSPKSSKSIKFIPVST
Sequence of Voltage-gated inwardly rectifying potassium channel KCNH2 (Q12809 whole entry): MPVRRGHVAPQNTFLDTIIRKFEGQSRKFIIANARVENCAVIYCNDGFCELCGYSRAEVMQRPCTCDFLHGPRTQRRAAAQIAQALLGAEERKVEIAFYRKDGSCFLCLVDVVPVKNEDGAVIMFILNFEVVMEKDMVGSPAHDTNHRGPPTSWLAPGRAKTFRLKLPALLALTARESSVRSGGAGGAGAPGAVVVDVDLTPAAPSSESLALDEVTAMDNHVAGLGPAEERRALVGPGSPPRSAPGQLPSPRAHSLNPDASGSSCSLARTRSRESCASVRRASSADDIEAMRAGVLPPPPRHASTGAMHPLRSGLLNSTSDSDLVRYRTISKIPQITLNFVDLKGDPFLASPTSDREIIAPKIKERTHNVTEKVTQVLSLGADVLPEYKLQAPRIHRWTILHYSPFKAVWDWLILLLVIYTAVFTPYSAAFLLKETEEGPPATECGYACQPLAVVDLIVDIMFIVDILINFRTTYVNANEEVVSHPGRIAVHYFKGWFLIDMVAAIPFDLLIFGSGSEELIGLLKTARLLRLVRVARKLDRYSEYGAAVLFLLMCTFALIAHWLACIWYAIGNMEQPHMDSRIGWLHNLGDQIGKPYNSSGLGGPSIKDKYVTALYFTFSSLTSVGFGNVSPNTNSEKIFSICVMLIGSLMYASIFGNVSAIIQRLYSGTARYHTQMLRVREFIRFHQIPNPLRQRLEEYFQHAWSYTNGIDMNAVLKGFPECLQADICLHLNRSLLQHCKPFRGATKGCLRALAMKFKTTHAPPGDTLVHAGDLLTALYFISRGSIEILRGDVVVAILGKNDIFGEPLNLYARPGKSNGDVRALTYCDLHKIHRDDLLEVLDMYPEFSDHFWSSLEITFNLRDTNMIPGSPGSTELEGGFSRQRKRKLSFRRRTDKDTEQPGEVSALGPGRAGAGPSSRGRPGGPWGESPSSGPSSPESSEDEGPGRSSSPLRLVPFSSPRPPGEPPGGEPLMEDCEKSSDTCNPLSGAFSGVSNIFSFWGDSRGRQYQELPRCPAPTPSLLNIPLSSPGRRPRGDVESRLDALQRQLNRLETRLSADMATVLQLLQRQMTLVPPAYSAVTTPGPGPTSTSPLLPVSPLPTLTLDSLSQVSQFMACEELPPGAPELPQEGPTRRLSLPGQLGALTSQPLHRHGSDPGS
Sequence of Acetylcholinesterase (P22303 whole entry): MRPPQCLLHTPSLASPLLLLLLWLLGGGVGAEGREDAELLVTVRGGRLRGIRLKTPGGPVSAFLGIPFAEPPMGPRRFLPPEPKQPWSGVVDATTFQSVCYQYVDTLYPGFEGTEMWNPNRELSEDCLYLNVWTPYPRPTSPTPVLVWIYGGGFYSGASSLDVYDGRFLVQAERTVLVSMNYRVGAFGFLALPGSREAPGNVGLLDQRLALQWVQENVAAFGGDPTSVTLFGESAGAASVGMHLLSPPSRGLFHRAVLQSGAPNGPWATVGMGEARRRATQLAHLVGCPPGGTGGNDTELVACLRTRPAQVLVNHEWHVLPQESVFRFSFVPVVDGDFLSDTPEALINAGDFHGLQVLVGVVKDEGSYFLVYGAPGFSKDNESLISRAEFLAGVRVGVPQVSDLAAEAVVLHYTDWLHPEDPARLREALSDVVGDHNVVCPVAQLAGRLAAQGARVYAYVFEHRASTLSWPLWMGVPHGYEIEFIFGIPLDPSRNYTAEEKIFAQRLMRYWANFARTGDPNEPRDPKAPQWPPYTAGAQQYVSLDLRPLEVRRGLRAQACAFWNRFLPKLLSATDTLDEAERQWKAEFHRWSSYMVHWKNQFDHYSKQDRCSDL
Sequence of C-C chemokine receptor type 2 (P41597 whole entry): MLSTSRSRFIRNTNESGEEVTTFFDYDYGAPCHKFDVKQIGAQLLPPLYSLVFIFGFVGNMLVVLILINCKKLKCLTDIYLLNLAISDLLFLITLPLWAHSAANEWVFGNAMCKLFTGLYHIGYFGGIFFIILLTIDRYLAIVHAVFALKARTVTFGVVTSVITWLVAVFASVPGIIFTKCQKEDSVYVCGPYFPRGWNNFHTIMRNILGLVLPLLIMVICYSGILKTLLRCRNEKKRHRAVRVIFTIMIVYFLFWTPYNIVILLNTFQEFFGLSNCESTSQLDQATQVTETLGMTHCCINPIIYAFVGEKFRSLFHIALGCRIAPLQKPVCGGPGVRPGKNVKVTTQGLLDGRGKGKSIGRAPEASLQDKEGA

C=C1C(=O)O[C@@H]2C3O[C@]3(C)CC/C=C(\C)CC[C@@H]12 (stereo partly specified)
Not Active: IC50 [1] | Ki [1] | IC50 [2] | IC50 (Leukotriene C4 synthase) | IC50 (Vasopressin V1a receptor) | IC50 [3] | IC50 [4] | Ki [4] | IC50 (Acetylcholinesterase) | IC50 [5] | IC50 [6] | Ki [6] | IC50 [7] | IC50 [8] | IC50 [9] | Ki [9] | IC50 [10] | Ki [10] | IC50 [11] | Ki [11] | IC50 [12] | Ki [12] | IC50 (Cytochrome P450 3A4) | Ki (Cytochrome P450 3A4)

NCC1(CC(=O)O)CCCCC1 [GABAPENTIN]
Not Active: IC50 [1] | Ki [1] | IC50 [2] | IC50 (Leukotriene C4 synthase) | IC50 (Vasopressin V1a receptor) | IC50 [3] | IC50 [4] | Ki [4] | IC50 (Acetylcholinesterase) | IC50 [5] | IC50 [6] | Ki [6] | IC50 [7] | IC50 [8] | IC50 [9] | Ki [9] | IC50 [10] | Ki [10] | IC50 [11] | Ki [11] | IC50 [12] | Ki [12] | IC50 (Cytochrome P450 3A4) | Ki (Cytochrome P450 3A4)

Brc1ccccc1 [BROMOBENZENE]
Not Active: IC50 [1] | Ki [1] | IC50 [2] | IC50 (Leukotriene C4 synthase) | IC50 (Vasopressin V1a receptor) | IC50 [3] | IC50 [4] | Ki [4] | IC50 (Acetylcholinesterase) | IC50 [5] | IC50 [6] | Ki [6] | IC50 [7] | IC50 [8] | IC50 [9] | Ki [9] | IC50 [10] | Ki [10] | IC50 [11] | Ki [11] | IC50 [12] | Ki [12] | IC50 (Cytochrome P450 3A4) | Ki (Cytochrome P450 3A4)

CC(=O)CCCCn1c(=O)c2c(ncn2C)n(C)c1=O [PENTOXIFYLLINE]
Not Active: IC50 [1] | Ki [1] | IC50 [2] | IC50 (Leukotriene C4 synthase) | IC50 (Vasopressin V1a receptor) | IC50 [3] | IC50 [4] | Ki [4] | IC50 (Acetylcholinesterase) | IC50 [5] | IC50 [6] | Ki [6] | IC50 [7] | IC50 [8] | IC50 [9] | Ki [9] | IC50 [10] | Ki [10] | IC50 [11] | Ki [11] | IC50 [12] | Ki [12] | IC50 (Cytochrome P450 3A4) | Ki (Cytochrome P450 3A4)

— ChEMBL document CHEMBL1909046, “DrugMatrix in vitro pharmacology data”
